Measurements reported in publication PMC6544337, “Development of chimeric and bifunctional antagonists for CLR/RAMP receptors” (PLoS ONE, 2019).

Key:
[1] = biological target: CLR/RAMP2 receptor complex (UniProt Q16602)
[2] = biological target: CLR/RAMP1 (Homo sapiens, UniProt O60894+Q16602); assay: CLR/RAMP1 cAMP assay, agonist mode (DiscoveRx HitHunter cAMP XS+); assay type: cell-based; conditions: for CLR/RAMP1 Max Activity % of control: agonist mode, positive control CGRP, 1321N1 cells
Protocol: (§1) The bioactivity of synthetic analogs was studied using cells that stably express CLR/RAMP1 (1321N1 cells) or CLR/RAMP2 (CHO-K1 cells) receptors using CLR/RAMP1 cAMP and CLR/RAMP2 arrestin assays from DiscoveRx (Fremont, Ca). In receptor-activation assays, the dose-dependent stimulatory response was studied in duplicate, at 10 different concentrations.
For the analysis of signaling in CLR/RAMP1-expressing cells, cAMP Hunter cell lines were expanded from freezer stocks, and cells were seeded in white walled, 384-well microplates and incubated at 37C for the appropriate time. The activity was determined using the DiscoveRx HitHunter cAMP XS+ assay. Media was aspirated from cells and replaced with 15 μl 2:1 HBSS/10mM Hepes:cAMP XS+ Ab reagent. Intermediate dilution of sample stocks was performed to generate 4X sample in assay buffer, and 5 μl of 4X sample was added to cells and incubated at 37C or room temperature for the appropriate time. Vehicle concentration was 1%.
Microplates were read with a PerkinElmer instrument for chemiluminescent signal detection.

[3] = biological target: CLR/RAMP2 (Homo sapiens, UniProt O60895+Q16602); assay: CLR/RAMP2 PathHunter β-arrestin assay, agonist mode; assay type: cell-based; conditions: for CLR/RAMP2 Max Activity % of control: agonist mode, positive control ADM, CHO-K1 cells
CLR/RAMP2, sequence (Q16602 23-461): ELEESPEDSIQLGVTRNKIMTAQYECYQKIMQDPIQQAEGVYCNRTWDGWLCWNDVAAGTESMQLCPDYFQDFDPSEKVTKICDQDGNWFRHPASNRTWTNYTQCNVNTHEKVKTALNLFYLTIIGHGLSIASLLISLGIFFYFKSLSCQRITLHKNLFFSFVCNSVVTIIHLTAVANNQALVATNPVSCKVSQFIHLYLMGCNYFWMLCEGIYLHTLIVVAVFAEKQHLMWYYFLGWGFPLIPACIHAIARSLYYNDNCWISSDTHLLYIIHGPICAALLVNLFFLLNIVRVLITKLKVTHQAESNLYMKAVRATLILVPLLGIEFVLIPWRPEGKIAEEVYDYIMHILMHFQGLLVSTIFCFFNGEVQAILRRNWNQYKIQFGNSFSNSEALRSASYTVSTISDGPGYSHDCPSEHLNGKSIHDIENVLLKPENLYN
CLR/RAMP2, sequence (O60895 43-175): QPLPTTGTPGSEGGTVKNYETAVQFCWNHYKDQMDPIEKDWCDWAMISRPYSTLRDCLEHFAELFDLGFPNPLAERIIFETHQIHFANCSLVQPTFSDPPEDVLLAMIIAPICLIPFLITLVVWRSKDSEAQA
Protocol: as §1
The CLR/RAMP2 signaling was assayed using the CLR/RAMP2 PathHunter β-Arrestin assay. In this assay, the GPCR was fused in frame with a small enzyme donor fragment ProLink (PK) and co-expressed in cells stably expressing a fusion protein of β-arrestin and an N-terminal deletion mutant of β-galactosidase (i.e., enzyme acceptor or EA). Activation of the CLR/RAMP2 stimulates binding of β-arrestin to the PK-tagged receptor and leads to an increase in enzyme activity that can be measured using chemiluminescent PathHunter Detection Reagents. PathHunter cell lines were seeded in white walled, 384-well microplates and incubated at 37C prior to testing. For agonist determination, intermediate dilution of sample stocks was performed to generate 5X sample in assay buffer, and 5 μl of 5X sample was added to cells and incubated at 37C for 90 minutes. Vehicle concentration was 1%. For antagonistic activity determination, cells were pre-incubated with antagonist followed by agonist challenge at the EC80 concentration.

[4] = biological target: CLR/RAMP1 receptor complex (UniProt Q16602)
CLR/RAMP1 receptor complex, sequence (Q16602 23-461, chain 1 of 2): as the sequence (Q16602 23-461) above
CLR/RAMP1 receptor complex, sequence (O60894 27-148, chain 2 of 2, further chain): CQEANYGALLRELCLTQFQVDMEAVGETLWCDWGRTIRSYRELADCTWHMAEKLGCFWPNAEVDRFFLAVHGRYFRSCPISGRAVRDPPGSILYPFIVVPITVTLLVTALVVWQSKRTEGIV

[5] = biological target: CLR/RAMP2 receptor complex (UniProt Q16602); remark: listed apart in the source

CLR/RAMP1, sequence (Q16602 23-461): as the sequence (Q16602 23-461) above
CLR/RAMP1, sequence (O60894 27-148): as the sequence (O60894 27-148, chain 2 of 2, further chain) above
CLR/RAMP2 receptor complex, sequence (Q16602 23-461, chain 1 of 2): as the sequence (Q16602 23-461) above
CLR/RAMP2 receptor complex, sequence (O60895 43-175, chain 2 of 2, further chain): as the sequence (O60895 43-175) above

Molecule	EC50 of CLR/RAMP2 signalling (CHO-K1 cells, PathHunter β-Arrestin assay) [1] [nM]	CLR/RAMP1 Max Activity % of control [2]	CLR/RAMP2 Max Activity % of control [3]	IC50 of inhibition of ADM-mediated CLR/RAMP2 β-arrestin signalling (EC80 of ADM; pair blocked: ADM + m25) [5] [nM]	further results
adrenomedullin 2 (peptide)	70				
CC[C@H](C)[C@H](NC(=O)[C@H](CCC(N)=O)NC(=O)[C@H](Cc1c[nH]cn1)NC(=O)[C@H](C)NC(=O)[C@H](CC(C)C)NC(=O)[C@H](CCCCN)NC(=O)[C@H](CCC(N)=O)NC(=O)[C@@H](NC(=O)[C@@H](NC(=O)[C@@H]1CSSC[C@H](NC(=O)CNC(=O)[C@@H](N)CCCCN)C(=O)N[C@@H](CCCNC(=N)N)C(=O)N[C@@H](Cc2ccccc2)C(=O)NCC(=O)N[C@@H]([C@@H](C)O)C(=O)N1)[C@@H](C)O)C(C)C)C(=O)N[C@@H](Cc1ccc(O)cc1)C(=O)N[C@@H](CCC(N)=O)C(=O)N[C@@H](Cc1ccccc1)C(=O)N[C@H](C(=O)N[C@@H](CC(=O)O)C(=O)N[C@@H](CCCCN)C(=O)N[C@@H](CC(=O)O)C(=O)N[C@@H](CCCCN)C(=O)N[C@@H](CC(=O)O)C(=O)N[C@@H](CC(N)=O)C(=O)N[C@@H](CO)C(=O)N[C@@H](C)C(=O)N1CCC[C@H]1C(=O)N[C@H](C(=O)N[C@@H](CC(=O)O)C(=O)N1CCC[C@H]1C(=O)N[C@@H](CO)C(=O)N[C@@H](CO)C(=O)N1CCC[C@H]1C(=O)N[C@@H](Cc1c[nH]cn1)C(=O)N[C@@H](CO)C(=O)N[C@@H](Cc1ccc(O)cc1)C(N)=O)C(C)C)[C@@H](C)O [Agonist 2]		95 % of control	115 % of control		EC50 ([2]; 1321N1 cells stably expressing CLR/RAMP1, cAMP read-out, chemiluminescence, 10-point dose response, 3-fold dilution, in duplicate): 31 nM; EC50 ([3]; CHO-K1 cells stably expressing CLR/RAMP2, β-arrestin recruitment, 90 min at 37C, 10-point dose response in duplicate): 18 nM
ADM22-52 (peptide)				256	IC50 of inhibition of CGRP-mediated CLR/RAMP1 cAMP signalling (EC80 of CGRP; pair blocked: m4 + m24) [4]: 6600 nM
CGRP8-37 (peptide)				> 10000	

The next lines start with results.

EC50 of CLR/RAMP2 signalling (CHO-K1 cells, PathHunter β-Arrestin assay) [1] [nM]	CLR/RAMP1 Max Activity % of control [2]	CLR/RAMP2 Max Activity % of control [3]	IC50 of inhibition of ADM-mediated CLR/RAMP2 β-arrestin signalling (EC80 of ADM; pair blocked: ADM + m25) [5] [nM]	Molecule	further results
	69 % of control	102 % of control		CC[C@H](C)[C@H](NC(=O)[C@H](CCC(N)=O)NC(=O)[C@H](Cc1c[nH]cn1)NC(=O)[C@H](C)NC(=O)[C@H](CC(C)C)NC(=O)[C@H](CCCCN)NC(=O)[C@H](CCC(N)=O)NC(=O)[C@@H](NC(=O)[C@@H](NC(=O)[C@@H]1CSSC[C@H](NC(=O)CNC(=O)[C@@H](N)Cc2ccccc2)C(=O)N[C@@H](CCCNC(=N)N)C(=O)N[C@@H](Cc2ccccc2)C(=O)NCC(=O)N[C@@H]([C@@H](C)O)C(=O)N1)[C@@H](C)O)C(C)C)C(=O)N[C@@H](Cc1ccc(O)cc1)C(=O)N[C@@H](CCC(N)=O)C(=O)N[C@@H](Cc1ccccc1)C(=O)N[C@H](C(=O)N[C@@H](CC(=O)O)C(=O)N[C@@H](CCCCN)C(=O)N[C@@H](CC(=O)O)C(=O)N[C@@H](CCCCN)C(=O)N[C@@H](CC(=O)O)C(=O)N[C@@H](CC(N)=O)C(=O)N[C@H](C(=O)N[C@@H](C)C(=O)N1CCC[C@H]1C(=O)N[C@@H](CCCNC(=N)N)C(=O)N[C@@H](CO)C(=O)N[C@@H](CCCCN)C(=O)N[C@H](C(=O)N[C@@H](CO)C(=O)N1CCC[C@H]1C(=O)N[C@@H](CCC(N)=O)C(=O)NCC(=O)N[C@@H](Cc1ccc(O)cc1)C(N)=O)[C@@H](C)CC)C(C)C)[C@@H](C)O [ADM14-52, adrenomedullin 14–52, reference compound]	
9				adrenomedullin 14–52 (peptide)	
